Assay [1] has as its system T1, V-H+-ATPase.
T1 construct: gene VHA-A
The conditions noted are these: ATP 0.05-1.5 mM, […] MgCl2, 100 mM KCl, MOPS-TRIS pH 7.0, 22 °C; control plants (10 mM NaCl); corrected for vesicle orientation. As to the method:
ATP-dependent H+ transport, ACMA fluorescence quenching, Michaelis-Menten fit on V-H+-ATPase | Kinetic analysis was performed by fitting a Michaelis–Menten curve through the data points

Assay [2] relates to T2, V-H+-PPase.
T2 construct: gene VHP1
Conditions: PPi 0.005-[…], […] MgCl2, 100 mM KCl, MOPS-TRIS pH 7.0, 22 °C, corrected for vesicle orientation. How it is done: PPi-dependent H+ transport, ACMA fluorescence quenching, Michaelis-Menten fit on V-H+-PPase | Kinetic analysis was performed by fitting a Michaelis–Menten curve through the data points

Where two headings read alike, the source gives them in different places.

Broadly, the Km is the concentration of substrate that gives half-maximal velocity.

`Nc1ncnc2c1ncn2[C@@H]1O[C@H](COP(=O)(O)OP(=O)(O)OP(=O)(O)O)[C@@H](O)[C@H]1O` [ATP]: the Km in assay [1] worked out at 250 ± 110 µM.
As for `O=P(O)(O)OP(=O)(O)O` [pyrophosphate], the Michaelis-Menten constant (Km) in assay [2] (control plants (0 mM NaCl)) was found to be 43 ± 24 µM; in assay [2] (control plants (10 mM NaCl)), 34 ± 14 µM.
